In patent publication US20090258071A1, “COMPOSITIONS AND METHODS FOR PH TARGETED DRUG DELIVERY” (Labopharm, Inc., priority 2006, published 2009):

Experiment: Dissolution of SN-38 in phosphate buffer pH 6.8
Type: physicochemical
Settings: FIG. 4
Description: The kinetics of drug release can be determined by measuring the amount of drug released into phosphate buffer pH 6.8 at 37° C. via conventional high pressure liquid chromatography (HPLC).
The experiment was repeated in a solution at a higher pH, specifically pH 6.8. Briefly, the dissolution of SN-38 was measured either as SN-38 alone or from SN-38 containing micelles prepared as described in Example 2. The freeze dried cake produced in Example 2 was added to phosphate buffer pH 6.8 and the drug concentration was measured under the same conditions as the experiment using aqueous HCl at pH 1.2.

Structure (SMILES): CCc1c2c(nc3ccc(O)cc13)-c1cc3c(c(=O)n1C2)COC(=O)[C@]3(O)CC [SN-38, 7-ethyl-10-hydroxy-camptothecin]
- dissolution behaviour: rapidly precipitates from solution
